Assays:
Format in all cases: in vivo, human
[1] = system: patients with elevated triglyceride levels on statin therapy; test: REDUCE-IT endpoints by EPA blood level tertile in the icosapent ethyl group compared to placebo; settings: averaged upper EPA tertile vs below the upper tertile
Description: To assess the relationship between on-treatment hsCRP and the primary and key secondary endpoints, subgroup analyses were carried out as done for the ITT population for patients grouped according to values greater or equal to or less than […] at baseline and at 2 years. To assess the relationship between on-treatment serum EPA and the primary and key secondary endpoints, Kaplan-Meier (KM) curves were produced for AMR101 treated patients grouped into tertiles based on their values at year 1 and were compared with the placebo-treated patients.
This is a study aimed towards determining a relative risk reduction (RRR) between subjects stratified by EPA tertiles in the REDUCE-IT clinical trial described above in Example 1. Samples were obtained from those subjects and total EPA and AA levels in human serum and plasma samples were determined according at least to the methods described in Example 7.
(§1) The objective of this study is to assess the effects of administering icosapent ethyl at 4 g per day to patients from the REDUCE-IT trial of Example 1. More specifically, patients from the REDUCE-IT trial of Example 1 were stratified by their EPA levels into one of three tertiles. Following stratification, the objective was to determine if the RRR differs between patients having EPA levels in the three different tertiles. For the data collected as shown in Tables 38-43 and FIGS. 52, 53, and 56-59, the tertiles were established based on data collected from subjects at 1 year, 2 years, and last visit following icosapent ethyl administration compared to placebo. Data are presented as an average of 1 year, 2 year, […], and end of study values. The data was further analyzed use both pooled and unpooled statistically methods.

[2] = system: patients with elevated triglyceride levels on statin therapy; test: REDUCE-IT endpoints by pooled (icosapent ethyl and placebo) EPA blood level tertile
From the text: as §1
(0.84 for lowest vs. placebo, 0.72 for middle vs. placebo, and 0.65 for highest vs. placebo).

[3] = system: patients with elevated triglyceride levels on statin therapy; test: REDUCE-IT endpoints by pooled (icosapent ethyl and placebo) EPA/AA ratio tertile
From the text: as §1
Placebo and icosapent ethyl treated subjects were pooled and stratified based on EPA/AA tertiles with […], […], and the highest […]

[4] = system: patients with elevated triglyceride levels on statin therapy; test: REDUCE-IT endpoints by pooled (icosapent ethyl and placebo) EPA blood level tertile; settings: FIG. 54; ITT pooled; tertiles ≤31.733, >31.733 to ≤120.175, >120.175 μg/mL
[5] = pooled, tertiles ≤31.305, >31.305 to ≤118.1, >118.1 μg/mL
[6] = FIG. 56, ITT pooled, tertiles ≤0.0857, >0.0857 to ≤0.4053, >0.4053
[7] = pooled, tertiles ≤0.084337, >0.084337 to ≤0.395187, >0.395187

## CC/C=C\C/C=C\C/C=C\C/C=C\C/C=C\CCCC(=O)O [EPA, eicosapentaenoic acid]
[1]
  primary endpoint HR, average achieved EPA >181 mg/L vs ≤181 mg/L: 0.842
[2]; FIG. 52, pooled
  primary composite endpoint RRR, highest vs lowest EPA tertile: 43%
  primary composite endpoint RRR, highest vs middle EPA tertile: 30%
  primary composite endpoint RRR, middle vs lowest EPA tertile: 29%
[2]; FIG. 54, ITT pooled, tertiles ≤31.733, >31.733 to ≤120.175, >120.175 μg/mL
  primary composite endpoint HR, middle vs lowest EPA tertile: 0.79
[2]; pooled placebo and icosapent ethyl, tertiles ≤31.305, >31.305 to ≤118.1, >118.1 μg/mL
  primary endpoint HR, highest vs. lowest tertile: 0.65
[2]; [5]
  key secondary endpoint HR, highest vs. lowest tertile: 0.61
  key secondary endpoint HR, highest vs. middle tertile: 0.78
  key secondary endpoint HR, middle vs. lowest tertile: 0.78
  primary endpoint HR, highest vs. middle tertile: 0.80
  primary endpoint HR, middle vs. lowest tertile: 0.81
[3]; [6]
  primary endpoint HR, highest vs. lowest EPA/AA tertile: 0.63
  primary endpoint HR, middle vs. lowest EPA/AA tertile: 0.79
[3]; [7]
  key secondary endpoint HR, highest vs. lowest EPA/AA tertile: 0.57
  key secondary endpoint HR, highest vs. middle EPA/AA tertile: 0.75
  key secondary endpoint HR, middle vs. lowest EPA/AA tertile: 0.76
  primary endpoint HR, highest vs. lowest EPA/AA tertile: 0.64
  primary endpoint HR, highest vs. middle EPA/AA tertile: 0.84
  primary endpoint HR, middle vs. lowest EPA/AA tertile: 0.77
[4]
  primary composite endpoint HR, high vs lowest EPA tertile: 0.64

Reference: patent publication US20200261391A1, “METHODS OF REDUCING THE RISK OF A CARDIOVASCULAR EVENT IN A STATIN-TREATED SUBJECT BY INCREASING SERUM AND PLASMA EPA AND DPA LEVELS” (Amarin Pharmaceuticals Ireland Limited, priority 2019, published 2020)
